Reference: PMC12668308, “A Novel Antimalarial Agent that Inhibits Protein Synthesis in Plasmodium falciparum” (Angewandte Chemie (International Ed. in English), 2025)

Tests used:
Experiment in all cases: iSPP profiling, P. falciparum lysate
[1] = test system: Uncharacterized protein (W7JQ86); assay type: binding, Plasmodium falciparum
Method: (§1) P. falciparum NF54 lysates were extracted as described in ^[26^] . The parasite asynchronous culture was extracted once 3-5% parasitemia was reached. Saponin lysis was done as described in 2.2.10. Once the parasite pellet was obtained, 2.5 volumes of ice-cold lysis buffer (50 mM Tris/HCl pH 7.5 (Avantor), 5% glycerol (Sigma-Aldrich), 150 mM NaCl (Carl Roth), 1.5 mM MgCl2 (Sigma-Aldrich), 1 mM DTT (Carl Roth), 0.8% IGEPAL CA-630 (Sigma-Aldrich), 1X Halt Protease and Phosphatase Inhibitor-Cocktails EDTA-free (Thermo Fisher Scientific)) was added to the parasite pellet. The lysate solution was subjected to three cycles of flash freeze-thaw with liquid nitrogen and ddH2O at RT. The lysates were centrifuged at 20,000 g for 20 minutes at 4 °C. The soluble protein fraction (supernatant) was collected and the protein content was quantified using the BCA assay (Pierce™ BCA Protein Assay Kit, Thermo Fisher Scientific). The lysate was stored at -80 °C until further use.
(§2) The P. falciparum lysate was thawed on ice and diluted to 0.8 mg/mL. The lysate was aliquoted, and each aliquot was incubated with either a vehicle control (DMSO), 34 (dissolved in DMSO), or varying concentrations of 31 (dissolved in DMSO) at 0.01 µM, 0.1 µM, 10 µM, 50 µM, and 100 µM. Subsequently, the samples were incubated at room temperature for 30 minutes using a rotating mixer. After distribution into a 96-well plate, the samples were treated with increasing concentrations of A.E.A. (v/v) ranging from 14% to 28% (14, 16, 18, 20, 22, 24, 26, and 28%). Following a 20-minute incubation at 37°C with shaking at 750 rpm, the samples were centrifuged at 4400 g for 35 minutes to remove precipitated proteins. The soluble fractions were then pooled in equal volumes into a single sample using the Bravo Automated Liquid Handling Platform. The pooled samples were subsequently prepared for LC-MS/MS analysis.
(§3) The raw LFQ-DIA intensity values of biological replicates across all conditions were normalized to the median abundance using Excel. The normalized values were then log2 transformed in Perseus (v2.0.10.0).^[58^] Missing values were imputed from a normal distribution (width 0.3, down shift 1.5), and p-values were obtained using a two-sample t-test over replicates with a permutation-based false discovery rate correction (FDR 0.05). Volcano plots were generated in RStudio using the EnhancedVolcano package (v. 1.20.0), ^[59^] plotting proteins by statistical significance (y-axis: –Log10 p-value) versus the magnitude of change (x-axis: log2 fold change of protein intensities for each compound condition relative to the vehicle control). The heatmap was generated in Perseus (v2.0.10.0). Dose-dependent curves were generated using normalized protein intensity values, expressed as a ratio to the vehicle control. Plots were created in GraphPad Prism (v8.3.0) using a nonlinear regression model.

[2] = test system: 60S ribosomal protein L7 (W7KAU4); assay type: binding, Plasmodium falciparum
[3] = test system: 2-C-methyl-D-erythritol 4-phosphate cytidylyltransferase (W7KNE8); assay type: binding, Plasmodium falciparum; conditions: 100 µM compound 34
Method: as §1, §2, §3

SPATR (W7KAV2) = assay type: binding, Plasmodium falciparum; conditions: 100 µM compound 34
Method: as §1, §2, §3

[4] = test system: Small nuclear ribonucleoprotein Sm D1 (W7K576); assay type: binding, Plasmodium falciparum; conditions: 100 µM compound 34
Method: as §1, §2, §3

[5] = test system: Uncharacterized protein (W7JZL0); assay type: binding, Plasmodium falciparum; conditions: 100 µM compound 34
Method: as §1, §2, §3

[6] = test system: PCI domain-containing protein (W7JUC8); assay type: binding, Plasmodium falciparum; conditions: 100 µM compound 34
Method: as §1, §2, §3

[7] = test system: Ribosome associated membrane protein RAMP4 (W7KMX9); assay type: binding, Plasmodium falciparum; conditions: 100 µM compound 34
Method: as §1, §2, §3

[8] = test system: Plasmodium RESA N-terminal domain-containing protein (W7KFM4); assay type: binding, Plasmodium falciparum; conditions: 100 µM compound 34
Method: as §1, §2, §3

[9] = test system: Uncharacterized protein (W7KFE6); assay type: binding, Plasmodium falciparum; conditions: 100 µM compound 34
Method: as §1, §2, §3

[10] = test system: Dihydrolipoyl dehydrogenase (W7JVD0); assay type: binding, Plasmodium falciparum; conditions: 100 µM compound 34
Method: as §1, §2, §3

Antigen UB05 (W7JRY1) = assay type: binding, Plasmodium falciparum; conditions: 100 µM compound 34
Method: as §1, §2, §3

[11] = test system: Erythrocyte membrane protein 1 (W7JQ66;W7K7Z8;W7KA08;W7KI56;W7KJ57); assay type: binding, Plasmodium falciparum; conditions: 100 µM compound 34
Method: as §1, §2, §3

[12] = test system: Uncharacterized protein (W7KBT1); assay type: binding, Plasmodium falciparum; conditions: 100 µM compound 34
Method: as §1, §2, §3

[13] = test system: Dual specificity protein phosphatase (W7KAW5); assay type: binding, Plasmodium falciparum; conditions: 100 µM compound 34
Method: as §1, §2, §3

[14] = test system: Uncharacterized protein (W7KAL3); assay type: binding, Plasmodium falciparum; conditions: 100 µM compound 34
Method: as §1, §2, §3

[15] = test system: Ubiquitin-like protein nedd8-like (W7JPX7); assay type: binding, Plasmodium falciparum; conditions: 100 µM compound 34
Method: as §1, §2, §3

[16] = test system: Pre-mRNA-splicing factor BUD31 (W7K941); assay type: binding, Plasmodium falciparum; conditions: 100 µM compound 34
Method: as §1, §2, §3

[17] = test system: Uncharacterized protein (W7K0G9); assay type: binding, Plasmodium falciparum; conditions: 100 µM compound 34
Method: as §1, §2, §3

[18] = test system: Sugar phosphate phosphatase (W7K268); assay type: binding, Plasmodium falciparum; conditions: 100 µM compound 34
Method: as §1, §2, §3

[19] = test system: Uncharacterized protein (W7JSC9); assay type: binding, Plasmodium falciparum; conditions: 100 µM compound 34
Method: as §1, §2, §3

[20] = test system: Uncharacterized protein (W7KAK7); assay type: binding, Plasmodium falciparum; conditions: 100 µM compound 34
Method: as §1, §2, §3

[21] = target: Aquaglyceroporin (W7K5E1) (Plasmodium falciparum, UniProt Q8II36); assay type: binding; conditions: 100 µM compound 34
Method: as §1
as §2, with “The pooled samples were subsequently prepared for LC-MS/MS analysis.” left out
(§4) The raw LFQ-DIA intensity values of biological replicates across all conditions were normalized to the median abundance using Excel. […] Dose-dependent curves were generated using normalized protein intensity values, expressed as a ratio to the vehicle control. […]

[22] = test system: 3-hydroxyacyl-[acyl-carrier-protein] dehydratase (W7K0B9); assay type: binding; conditions: 100 µM compound 34
Method: as §1
as §2, with “The pooled samples were subsequently prepared for LC-MS/MS analysis.” left out
as §4

[23] = target: Phosphatidylinositol 4-kinase (W7K9N9) (Plasmodium falciparum, UniProt W7K9N9); assay type: binding; conditions: 100 µM compound 34
Method: as §1
as §2, with “The pooled samples were subsequently prepared for LC-MS/MS analysis.” left out
as §4

Aquaglyceroporin (W7K5E1), sequence (Q8II36 whole entry, one chain of several): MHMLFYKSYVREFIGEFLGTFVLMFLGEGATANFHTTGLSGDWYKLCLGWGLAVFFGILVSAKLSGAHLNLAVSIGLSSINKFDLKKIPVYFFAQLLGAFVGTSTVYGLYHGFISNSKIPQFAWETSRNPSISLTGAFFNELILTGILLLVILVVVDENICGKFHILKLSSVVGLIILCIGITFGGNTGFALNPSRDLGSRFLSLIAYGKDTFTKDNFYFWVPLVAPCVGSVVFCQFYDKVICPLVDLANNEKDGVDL
Phosphatidylinositol 4-kinase (W7K9N9), sequence (W7K9N9 entry or part of it): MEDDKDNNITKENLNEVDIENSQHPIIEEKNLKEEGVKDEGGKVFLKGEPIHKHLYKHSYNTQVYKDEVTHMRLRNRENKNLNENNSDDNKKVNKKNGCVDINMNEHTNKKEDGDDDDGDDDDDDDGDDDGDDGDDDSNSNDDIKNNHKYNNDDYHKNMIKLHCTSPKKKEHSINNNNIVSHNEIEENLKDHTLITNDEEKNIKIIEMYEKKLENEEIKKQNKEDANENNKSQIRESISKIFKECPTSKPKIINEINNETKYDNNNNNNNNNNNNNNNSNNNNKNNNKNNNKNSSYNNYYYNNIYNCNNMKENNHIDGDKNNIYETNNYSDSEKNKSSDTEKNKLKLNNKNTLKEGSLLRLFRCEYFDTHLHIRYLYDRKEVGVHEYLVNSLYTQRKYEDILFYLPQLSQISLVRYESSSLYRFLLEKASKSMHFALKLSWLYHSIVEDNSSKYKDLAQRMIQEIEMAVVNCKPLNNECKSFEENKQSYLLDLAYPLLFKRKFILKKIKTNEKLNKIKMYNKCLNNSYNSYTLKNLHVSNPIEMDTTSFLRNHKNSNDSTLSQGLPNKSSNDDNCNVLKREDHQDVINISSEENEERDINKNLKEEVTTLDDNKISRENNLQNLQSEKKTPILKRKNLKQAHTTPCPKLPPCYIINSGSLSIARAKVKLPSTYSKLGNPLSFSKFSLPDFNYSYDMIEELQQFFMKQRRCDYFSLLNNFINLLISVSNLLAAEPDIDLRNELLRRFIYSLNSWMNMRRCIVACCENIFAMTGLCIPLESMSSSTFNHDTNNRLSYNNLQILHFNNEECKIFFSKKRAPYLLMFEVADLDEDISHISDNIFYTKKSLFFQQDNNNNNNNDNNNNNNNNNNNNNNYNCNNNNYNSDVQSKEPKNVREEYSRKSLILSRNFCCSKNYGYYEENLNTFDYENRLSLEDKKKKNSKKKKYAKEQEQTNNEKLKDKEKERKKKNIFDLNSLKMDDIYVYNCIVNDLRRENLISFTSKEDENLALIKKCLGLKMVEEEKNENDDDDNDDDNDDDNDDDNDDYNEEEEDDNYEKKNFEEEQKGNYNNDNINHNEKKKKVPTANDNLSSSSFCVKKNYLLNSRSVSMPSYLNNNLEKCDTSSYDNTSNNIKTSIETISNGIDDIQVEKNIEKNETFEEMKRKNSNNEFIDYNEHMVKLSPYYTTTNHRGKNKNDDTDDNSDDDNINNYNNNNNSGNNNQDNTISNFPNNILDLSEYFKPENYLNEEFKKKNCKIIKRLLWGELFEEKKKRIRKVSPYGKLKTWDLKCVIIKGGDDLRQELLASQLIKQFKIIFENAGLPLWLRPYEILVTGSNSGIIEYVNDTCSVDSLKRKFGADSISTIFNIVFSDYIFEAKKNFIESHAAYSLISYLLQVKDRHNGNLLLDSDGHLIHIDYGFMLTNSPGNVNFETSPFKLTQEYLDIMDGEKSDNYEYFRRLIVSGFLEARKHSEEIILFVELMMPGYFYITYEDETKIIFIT

Compound CN1CCN(Cc2ccc(O)c(NC(=O)c3cccc(Oc4cc(C(F)(F)F)ccn4)c3)c2)CC1 [Compound 31, N-(2-hydroxy-5-((4-methylpiperazin-1-yl)methyl)phenyl)-3-((4-(trifluoromethyl)pyridin-2-yl)oxy)benzamide] has a log2FC ([1]; 10 µM) of 0.49, a log2FC ([1]; 50 µM) of 0.58 and a log2FC ([1]; 100 µM) of 0.37. It also gave a log2FC ([1]; 10^-2 µM) of 0.40, a log2FC ([1]; 10^-3 µM) of 0.28 and a log2FC ([2]; 10 µM) of 0.75. It also gave a log2FC ([2]; 50 µM) of 0.94, a log2FC ([2]; 100 µM) of 0.74 and a log2FC ([2]; 10^-2 µM) of 0.69. It also gave a log2FC ([2]; 10^-3 µM) of 0.33.

O=C(Nc1cc(CN2CCOCC2)ccc1F)c1cccc(Oc2cc(C(F)(F)F)ccn2)c1 [Compound 34, N-(2-Fluoro-5-(morpholinomethyl)phenyl)-3-((4-(trifluoromethyl)pyridin-2-yl)oxy)benzamide] gave a log2FC [3] of -1.336, a log2FC (SPATR (W7KAV2)) of 0.3835 and a log2FC [4] of 0.401. The log2FC [5] was -1.173, the log2FC [6] was -0.3885 and the log2FC [7] was 0.4453. The log2FC [8] was 0.3623, the log2FC [9] was 0.3535 and the log2FC [10] was 0.3119. For the same compound, the log2FC (Antigen UB05 (W7JRY1)) was 0.5651, the log2FC [11] was 0.3804 and the log2FC [12] was 0.318. It also gave a log2FC [13] of -0.5678, a log2FC [14] of -0.4853 and a log2FC [15] of 0.3658. It also gave a log2FC [16] of 0.5199, a log2FC [17] of -0.3881 and a log2FC [18] of -0.3813. It also gave a log2FC [19] of 0.457, a log2FC [20] of -0.4093 and a log2FC [21] of 0.4199. The log2FC [22] was 0.431 and the log2FC [23] was 0.5024.
